Values quoted from earlier work in publication PMC11682675 (Infection and Drug Resistance, 2024).
Residues, ends and D or L forms follow the SMILES beside them.

Details: reported by some studies

CL of PMB in ECMO patients: 1.16 L/h | Vd of PMB in ECMO patients: 19.7 L
SMILES: CC[C@H](C)CCCCC(=O)N[C@@H](CCN)C(=O)N[C@H](C(=O)N[C@@H](CCN)C(=O)N[C@H]1CCNC(=O)[C@H]([C@@H](C)O)NC(=O)[C@H](CCN)NC(=O)[C@H](CCN)NC(=O)[C@H](CC(C)C)NC(=O)[C@@H](Cc2ccccc2)NC(=O)[C@H](CCN)NC1=O)[C@@H](C)O [PMB, Polymyxin B] (HELM PEPTIDE1{[CC[C@H](C)CCCCC(=O)[*:2]].[Dab].T.[Dab].[Dab].[Dab].[dF].L.[Dab].[Dab].T}$PEPTIDE1,PEPTIDE1,5:R3-11:R2$$$V2.0)
